Key:
poly(I:C)-treated mice = test: Poly(I:C) pulmonary NET induction, mouse model of RNA viral lung infection; type: in vivo; conditions: for NET induction (CitH3 and MPO-DNA complexes in BALF and lung tissue): ELISA, FIGS. 2E-2H; for neutrophils in the BALF and in the lung: compared with poly(I:C) only, FIGS. 6D-6F; for neutrophil levels in the blood: cytofluorimetry, FIGS. 6B and 6C; for morbidity, measured as temperature drop / lung permeability (albumin content in BALF) / lung functionality (airway hyperreactivity to methacholine): ricolinostat 30 mg/kg/dose or GSK484 25 mg/kg/dose i.p., vs poly(I:C) only; for morbidity, measured as temperature drop: FIG. 2B; for lung permeability (albumin content in BALF): FIG. 2C; for lung functionality (airway hyperreactivity to methacholine): FIG. 2D
Procedure: Mice were intratracheally treated with 2.5 mg/kg poly(I:C) or saline daily for 4 days and euthanized 18 h post the last poly(I:C) instillation. Ricolinostat (30 mg/kg/dose) or GSK484 (25/mg/kg/dose) was administered intraperitoneally at day 2, day 4, and 3 h before the endpoint. • (B) Body temperature measurements at the endpoint. • (C) Lung permeability was measured as albumin content level in the BALF (n=5). • (D) Measure of airway hyperreactivity (AHR) in the indicated groups in response to increasing concentration of methacholine. RI, responsiveness index. • (E-H) CitH3 and MPO-DNA levels were analyzed by ELISA in BALFs (E, F) and in lungs (G, H) of mice treated as indicated. The saline group represents mice that received saline instead of poly(I:C). NT group represents mice that were challenged with poly(I:C) without receiving any drug. Statistics were calculated using one-way ANOVA (B, C, E-H) and two-way ANOVA with Tukey's analysis (D) (*p<0.05; **p<0.01; ***p<0.001; ****p<0.0001. n.s., not significant). n=10 (B, D) and 15 (E-H) for each group except for the GSK484-treated group (n=5). Gray stars represent comparison of all experimental groups with the saline-treated control. Black stars represent comparison between drug-treated groups and mice treated with poly(I:C) alone. Violin plots represent median (dashed line) with quartiles (dotted line). See also FIGS. 6A-F.
Nuclei are stained with DAPI (blue), and anti-neutrophils antibody (red). Scale bar=100 μm. • B-F) Neutrophils numbers and percentage were calculated in blood (B, C), BALFs (D, E), and lung tissues (F) of mice challenged, or not, with poly(I:C). The saline group represents mice that received saline instead of poly (I:C). NT group represent mice that were challenged with poly (I:C) without receiving any drug. Ricolinostat (30 mg/kg/dose) or GSK484 (25 mg/kg/dose) were administered intraperitoneally at day 2, day 4 and 3 h prior the endpoint. Violin plots represent median (dashed line) with quartiles (dotted line). Statistics were calculated using One-way ANOVA (*P<0.05; **P<0.01; ***P<0.001; ****P<0.0001; n.s., not significant). Grey stars represent comparison of all experimental groups with the saline control. Black stars represent comparison of drug treated groups with NT group.
NETosis was measured in bronco-alveolar lavage fluid or lung tissue homogenates as quantity of citrullinated histone H3 with Citrullinated histone H3 ELISA kit (Cayman) and as quantity of myeloperoxidase (MPO)-DNA complexes by using a modified Cell Death Detection ELISA (Roche). Briefly, anti-myeloperoxidase antibody (ThermoFisher) was used to coat a high-binding 96 multi-well plate overnight at 4° C. Following a 1 h blocking with 2% BSA/PBS solution, samples were added for an overnight incubation at 4° C. Finally, DNA was detected with Cell Death Detection kit according to manufacture instruction. Absorbance was measured at 405 nm and MPO-DNA complex levels were quantified as normalized relative to saline.
6-8 weeks-old female mice were treated daily with 2.5 mg/kg of poly (I:C) for 4 days and euthanized 18 hours post the last poly(I:C) intra-tracheal instillation, as previously described (Broggi et al., 2020). Temperatures were monitored with a rectal probe. NETosis was measured in bronco-alveolar lavage fluid and lung homogenates as quantity of citrullinated histone H3 and quantity of MPO-DNA complexes. Ricolinostat (30 mg/kg/dose) and GSK484 (25 mg/kg/dose) were administered intraperitoneally at day 2, day 4 and 3 hours prior the end point.

[1] = system: mice treated with S. aureus; test: S. aureus pulmonary infection model (bacterial pneumonia); type: in vivo, mouse; conditions: for NETosis (citrullinated histone H3 and MPO-DNA complexes in BALF): ELISA, FIGS. 3E and 3F; for bacterial control (S. aureus CFU in lung homogenates): FIG. 3D; for numbers of neutrophils in the BALF: FIG. 3I; for neutrophils circulating in the blood: FIGS. 3H, 7A; for lung barrier alteration (albumin content in BALF): compared with S. aureus alone, FIG. 3C; for citrullinated histone H3-positive neutrophils in the BALF: cytofluorimetric quantification, FIG. 3G; for IL-1β / IL-6: in the BALF, compared with S. aureus only, FIGS. 7B-7D
human neutrophils = test: Immunoblot of PMA-treated human neutrophils (cell death markers, histone H3 acetylation and citrullination); type: cell-based; conditions: for PMA-induced gasdermin D (GSDMD) cleavage: 1 μM PMA; for PMA-induced gasdermin D (GSDMD) cleavage / activation of apoptosis or necroptosis: immunoblot FIG. 1E; for activation of apoptosis or necroptosis: PMA-treated cells exposed to drug; for H3 citrullination: compared with cells treated with PMA only

SMILES | NET induction (CitH3 and MPO-DNA complexes in BALF and lung tissue) (poly(I:C)-treated mice) | neutrophils in the BALF and in the lung (poly(I:C)-treated mice) | neutrophil levels in the blood (poly(I:C)-treated mice) | morbidity, measured as temperature drop (poly(I:C)-treated mice) | lung permeability (albumin content in BALF) (poly(I:C)-treated mice) | lung functionality (airway hyperreactivity to methacholine) (poly(I:C)-treated mice) | NETosis (citrullinated histone H3 and MPO-DNA complexes in BALF) [1] | bacterial control (S. aureus CFU in lung homogenates) [1] | numbers of neutrophils in the BALF [1] | neutrophils circulating in the blood [1] | lung barrier alteration (albumin content in BALF) [1] | citrullinated histone H3-positive neutrophils in the BALF [1] | IL-1β [1] | IL-6 [1] | PMA-induced gasdermin D (GSDMD) cleavage (human neutrophils) | activation of apoptosis or necroptosis (human neutrophils) | H3 citrullination (human neutrophils; FIGS. 1E and 1F) | activity compared with GSK484 in all the conditions tested (poly(I:C)-treated mice; outcompeted i.e. increased survival of neutrophils in the BALF) | morbidity (body temperature) ([1]; ricolinostat 30 mg/kg/dose i.p. at -24 h and -3 h, compared with S. aureus only and with S. aureus and GSK484, FIG. 3B) | histone H3 acetylation (human neutrophils; untreated as well as PMA-treated cells, FIGS. 1E and 1F)
COc1cc(C(=O)N2CC[C@@H](O)[C@@H](N)C2)cc2nc(-c3cc4ccccc4n3CC3CC3)n(C)c12 [GSK484] | abrogated | trend of accumulation | did not change significantly | significantly reduced | significantly preserved | significantly preserved | potently decreased | not affected | increased numbers | no major differences | prevented | inhibit NETosis | significantly decreased | significantly decreased | not altered | excluded the activation of apoptosis or necroptosis | completely abrogated | – | – | –
O=C(CCCCCCNC(=O)c1cnc(N(c2ccccc2)c2ccccc2)nc1)NO [ricolinostat] | abrogated | trend of accumulation | did not change significantly | significantly reduced | significantly preserved | significantly preserved | potently decreased | not affected | increased numbers | no major differences | prevented | inhibit NETosis | significantly decreased | significantly decreased | not altered | excluded the activation of apoptosis or necroptosis | significantly decreased | phenocopied, and in some cases outcompeted | significantly decreased | boosted

— US20240366594A1, “Small Molecule Inhibitors of Formation of Neutrophil-Derived Extracellular Traps (NETosis) and Uses Thereof” (The Brigham and Women's Hospital, Inc., priority 2021, published 2024)
